For twelve molecules, GI50, IC50 and DC50 results are on record in US20250092039A1, “GLUTARIMIDE-CONTAINING PAN-KRAS-MUTANT DEGRADER COMPOUNDS AND USES THEREOF” (Tiger Biotherapeutics Inc., priority 2022, published 2025).

Experiment [1] deals with SW620 cells. Briefly: 3D cell growth inhibition of SW620 cells carrying endogenous KRAS G12V mutation (CellTiter-Glo 3D, GI50). It is filed as cell-based. The note with it: Homo sapiens, SW-620, 144 h; SW620 cells, 6 days; read-out: SW620 3D cell growth GI50. In outline:
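[…], compound exposure lasted 6 days at 37° C, added the day after plating from DMSO stocks over a concentration range. Cells: SW620, KRAS G12V, 3D culture.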
On the technique in general: ATP-based viability assays read luminescence as a measure of living cells.

Experiment [2] has as its target KRAS-G12V/RAF1 (Homo sapiens (Human), UniProt P01116, G12V). The experiment is described as follows: KRAS/RAF1 binding inhibition assay (AlphaScreen). In outline: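 IC50 comes from variable-slope nonlinear fits of % inhibition (relative to DMSO) against inhibitor concentration. The AlphaScreen signal tracks the interaction of GppNHp-bound KRAS G12V with the RAF1 RBD after 60 min at 4° C with compound in 2% DMSO final.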

Experiment [3] concerns the target KRAS G12V (Homo sapiens (Human), UniProt P01116, G12V). Briefly: KRAS G12V degradation in SW620 cells (Western blot, DC50). It is filed as cell-based. The note with it: 24 hours. The gist of the method:
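KRAS levels were quantified by fluorescent Western blot as percent of the DMSO control after 24 h of compound exposure at 37° C in homozygous KRAS G12V SW620 cells. A four-parameter variable-slope fit of the dose-response gave the half-maximal degradation concentration.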
(In western blotting, separated proteins are transferred to a membrane and probed.)

In general, GI50 refers to the concentration at which growth is held to half of that of the control. The IC50 is the concentration that inhibits the measured activity by half. Read a low IC50 as greater potency in that assay. A word on the DC50: it is the concentration giving 50% degradation.

Sequence of KRAS-G12V/RAF1 (P01116-2 other isoform, or with tags, fused parts or gaps G12V): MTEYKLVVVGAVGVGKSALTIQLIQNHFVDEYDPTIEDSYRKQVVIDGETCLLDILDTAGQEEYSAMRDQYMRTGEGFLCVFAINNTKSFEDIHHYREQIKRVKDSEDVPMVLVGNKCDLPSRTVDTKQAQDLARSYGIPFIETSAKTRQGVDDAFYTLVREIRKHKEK
Sequence of KRAS G12V (P01116-2 other isoform, or with tags, fused parts or gaps G12V): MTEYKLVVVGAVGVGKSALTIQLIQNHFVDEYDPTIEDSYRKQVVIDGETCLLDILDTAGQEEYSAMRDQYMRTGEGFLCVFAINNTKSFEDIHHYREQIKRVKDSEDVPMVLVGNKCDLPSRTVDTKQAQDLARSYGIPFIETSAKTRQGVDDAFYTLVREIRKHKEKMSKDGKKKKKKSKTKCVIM

As to `CCc1c(F)ccc2cc(O)cc(-c3ncc4c(N5CCC[C@]6(CCO6)C5)nc(OCC5(CN6CCC7(CC6)CC(N6CCN(c8ccc9c(c8)CN([C@H]8CCC(=O)NC8=O)C9=O)CC6)C7)CC5)nc4c3F)c12` [Compound 218, (S)-3-(5-(4-(7-((1-(((7-(8-ethyl-7-fluoro-3-hydroxynaphthalen-1-yl)-8-fluoro-4-((S)-1-oxa-6-azaspiro[3.5]nonan-6-yl)pyrido[4,3-d]pyrimidin-2-yl)oxy)methyl)cyclopropyl)methyl)-7-azaspiro[3.5]nonan-2-yl)piperazin-1-yl)-1-oxoisoindolin-2-yl)piperidine-2,6-dione], the GI50 in experiment [1] was less than 10 nM. In experiment [2], this molecule gave an IC50 of 20 to 200 nM. For the same molecule, the DC50 in experiment [3] was less than 1 nM.
In the case of `C[C@@]1(O)CCCN(c2nc(OCC3(CN4CCC5(CC4)CC(F)(CN4CCN(c6ccc7c(c6)CN([C@H]6CCC(=O)NC6=O)C7=O)CC4)C5)CC3)nc3c(F)c(-c4cc(O)cc5ccc(F)c(F)c45)ncc23)C1` [Compound 174, (S)-3-(5-(4-((7-((1-(((7-(7,8-difluoro-3-hydroxynaphthalen-1-yl)-8-fluoro-4-((R)-3-hydroxy-3-methylpiperidin-1-yl)pyrido[4,3-d]pyrimidin-2-yl)oxy)methyl)cyclopropyl)methyl)-2-fluoro-7-azaspiro[3.5]nonan-2-yl)methyl)piperazin-1-yl)-1-oxoisoindolin-2-yl)piperidine-2,6-dione], the GI50 in experiment [1] is less than 10 nM. The IC50 in experiment [2] lay in the range of 20 to 200 nM. Moreover, in experiment [3], the DC50 is less than 1 nM.
For `Cc1nc(N)cc(-c2ncc3c(N4CCC[C@@](C)(O)C4)nc(OCC4(CN5CCC6(CC5)CC(CN5CCN(c7ccc8c(c7)CN([C@H]7CCC(=O)NC7=O)C8=O)CC5)C6)CC4)nc3c2F)c1C(F)(F)F` [Compound 26, (S)-3-(5-(4-((7-((1-(((7-(6-amino-2-methyl-3-(trifluoromethyl)pyridin-4-yl)-8-fluoro-4-((R)-3-hydroxy-3-methylpiperidin-1-yl)pyrido[4,3-d]pyrimidin-2-yl)oxy)methyl)cyclopropyl)methyl)-7-azaspiro[3.5]nonan-2-yl)methyl)piperazin-1-yl)-1-oxoisoindolin-2-yl)piperidine-2,6-dione], the GI50 in experiment [1] was greater than 100 nM. The IC50 in experiment [2] was greater than 200 nM. The DC50 in experiment [3] is greater than 100 nM.
As to `CCc1c(F)ccc2cc(O)cc(-c3ncc4c(N5CCC[C@@](C)(O)C5)nc(OCC5(CN6CCC(C#N)(CN7CCN(c8ccc9c(c8)CN([C@H]8CCC(=O)NC8=O)C9=O)CC7)CC6)CC5)nc4c3F)c12` [Compound 20, 4-((4-(2-((S)-2,6-dioxopiperidin-3-yl)-1-oxoisoindolin-5-yl)piperazin-1-yl)methyl)-1-((1-(((7-(8-ethyl-7-fluoro-3-hydroxynaphthalen-1-yl)-8-fluoro-4-((R)-3-hydroxy-3-methylpiperidin-1-yl)pyrido[4,3-d]pyrimidin-2-yl)oxy)methyl)cyclopropyl)methyl)piperidine-4-carbonitrile], in experiment [1], the GI50 is less than 10 nM. Further, the IC50 in experiment [2] is greater than 200 nM. In experiment [3], this molecule showed a DC50 greater than 100 nM.
`C[C@@]1(O)CCCN(c2nc(OCC3(CN4CCC5(CC4)CC(N4CCN(c6ccc7c(c6)CN([C@H]6CCC(=O)NC6=O)C7=O)CC4)C5)CC3)nc3c(F)c(-c4cc(O)cc5ccc(F)c(F)c45)ncc23)C1` [Compound 170, (S)-3-(5-(4-(7-((1-(((7-(7,8-difluoro-3-hydroxynaphthalen-1-yl)-8-fluoro-4-((R)-3-hydroxy-3-methylpiperidin-1-yl)pyrido[4,3-d]pyrimidin-2-yl)oxy)methyl)cyclopropyl)methyl)-7-azaspiro[3.5]nonan-2-yl)piperazin-1-yl)-1-oxoisoindolin-2-yl)piperidine-2,6-dione]: in experiment [1], the GI50 is less than 10 nM. Also, the IC50 in experiment [2] is 20 to 200 nM. For the same molecule, in experiment [3], the DC50 fell in the range of 1 to 10 nM.
In the case of `CCc1c(F)ccc2cc(O)cc(-c3ncc4c(N5CCC[C@@](C)(O)C5)nc(OCC5(CN6CC(N7CCC(N8CCN(c9ccc%10c(c9)CN([C@H]9CCC(=O)NC9=O)C%10=O)CC8)CC7)C6)CC5)nc4c3F)c12` [Compound 139, (S)-3-(5-(4-(1-(1-((1-(((7-(8-ethyl-7-fluoro-3-hydroxynaphthalen-1-yl)-8-fluoro-4-((R)-3-hydroxy-3-methylpiperidin-1-yl)pyrido[4,3-d]pyrimidin-2-yl)oxy)methyl)cyclopropyl)methyl)azetidin-3-yl)piperidin-4-yl)piperazin-1-yl)-1-oxoisoindolin-2-yl)piperidine-2,6-dione], the GI50 in experiment [1] is less than 10 nM. For the same molecule, the IC50 in experiment [2] was less than 20 nM. In addition, the DC50 in experiment [3] is less than 1 nM.
In the case of `CCc1c(F)ccc2cc(O)cc(-c3ncc4c(N5CCOC[C@@](C)(O)C5)nc(OCC5(CN6CCC(CN7CCN(c8ccc9c(c8)CN([C@H]8CCC(=O)NC8=O)C9=O)CC7)CC6)CC5)nc4c3F)c12` [Compound 104, (3S)-3-[5-[4-[[1-[[1-[[7-(8-ethyl-7-fluoro-3-hydroxy-1-naphthyl)-8-fluoro-4-[(6S)-6-hydroxy-6-methyl-1,4-oxazepan-4-yl]pyrido[4,3-d]pyrimidin-2-yl]oxymethyl]cyclopropyl]methyl]-4-piperidyl]methyl]piperazin-1-yl]-1-oxo-isoindolin-2-yl]piperidine-2,6-dione], the GI50 in experiment [1] was less than 10 nM. The same molecule came in with an IC50 in experiment [2] of 20 to 200 nM. The molecule also displayed a DC50 in experiment [3] (cell prints a figure, not a class symbol) of 2 nM.
In the case of `C[C@@]1(O)CCCN(c2nc(OCC3(CN4CCC(CN5CCN(c6ccc7c(c6)CN([C@H]6CCC(=O)NC6=O)C7=O)CC5)CC4)CC3)nc3c(F)c(-c4cc(O)cc5cccc(Cl)c45)ncc23)C1` [Compound 123, (S)-3-(5-(4-((1-((1-(((7-(8-chloro-3-hydroxynaphthalen-1-yl)-8-fluoro-4-((R)-3-hydroxy-3-methylpiperidin-1-yl)pyrido[4,3-d]pyrimidin-2-yl)oxy)methyl)cyclopropyl)methyl)piperidin-4-yl)methyl)piperazin-1-yl)-1-oxoisoindolin-2-yl)piperidine-2,6-dione], in experiment [1], the GI50 was 10 to 100 nM. In experiment [2], this molecule registered a 50% inhibitory concentration (IC50) of 20 to 200 nM. For the same molecule, the DC50 in experiment [3] is 1 to 10 nM.
Regarding `C#Cc1c(F)ccc2cc(N)cc(-c3ncc4c(N5CCC[C@@](C)(O)C5)nc(OCC5(CN6CCC7(CC6)CC(CN6CCN(c8ccc9c(c8)CN([C@H]8CCC(=O)NC8=O)C9=O)CC6)C7)CC5)nc4c3F)c12` [Compound 119, (S)-3-(5-(4-((7-((1-(((7-(3-amino-8-ethynyl-7-fluoronaphthalen-1-yl)-8-fluoro-4-((R)-3-hydroxy-3-methylpiperidin-1-yl)pyrido[4,3-d]pyrimidin-2-yl)oxy)methyl)cyclopropyl)methyl)-7-azaspiro[3.5]nonan-2-yl)methyl)piperazin-1-yl)-1-oxoisoindolin-2-yl)piperidine-2,6-dione], in experiment [1], the GI50 is greater than 100 nM. For the same molecule, in experiment [2], the IC50 was greater than 200 nM. This molecule also registered a DC50 in experiment [3] greater than 100 nM.
On to `CCc1c(F)ccc2cc(O)cc(-c3ncc4c(N5CCC[C@@](C)(O)C5)nc(OCC5(CN6CCC(N7CC(N8CCN(c9ccc%10c(c9)CN([C@H]9CCC(=O)NC9=O)C%10=O)CC8)C7)CC6)CC5)nc4c3F)c12` [Compound 146, (S)-3-(5-(4-(1-(1-((1-(((7-(8-ethyl-7-fluoro-3-hydroxynaphthalen-1-yl)-8-fluoro-4-((R)-3-hydroxy-3-methylpiperidin-1-yl)pyrido[4,3-d]pyrimidin-2-yl)oxy)methyl)cyclopropyl)methyl)piperidin-4-yl)azetidin-3-yl)piperazin-1-yl)-1-oxoisoindolin-2-yl)piperidine-2,6-dione], for which, in experiment [1], the GI50 is less than 10 nM. In experiment [2], this molecule came in with an IC50 of less than 20 nM. The molecule further displayed a DC50 in experiment [3] of less than 1 nM.
Taken in the same sequence, the figures for `CCc1c(F)ccc2cc(O)cc(-c3ncc4c(N5CCC[C@@](C)(O)C5)nc(OCC5(CN6CCC(OC7CCN(C8CCN(c9ccc%10c(c9)CN(C9CCC(=O)NC9=O)C%10=O)CC8)CC7)CC6)CC5)nc4c3F)c12` (stereo partly drawn) [Compound 43, 3-(5-(4-((1-((1-(((7-(8-ethyl-7-fluoro-3-hydroxynaphthalen-1-yl)-8-fluoro-4-((R)-3-hydroxy-3-methylpiperidin-1-yl)pyrido[4,3-d]pyrimidin-2-yl)oxy)methyl)cyclopropyl)methyl)piperidin-4-yl)oxy)-[1,4′-bipiperidin]-1′-yl)-1-oxoisoindolin-2-yl)piperidine-2,6-dione] were less than 10 nM, less than 20 nM and less than 1 nM.
Consider `CCc1c(F)ccc2cc(O)cc(-c3ncc4c(N5CCC[C@@](C)(O)C5)nc(OCC5(CN6CC(N7CC(CN8CCN(c9ccc%10c(c9)CN([C@@H]9CCC(=O)NC9=O)C%10=O)CC8)C7)C6)CC5)nc4c3F)c12` [Compound 9, (R)-3-(5-(4-((1′-((1-(((7-(8-ethyl-7-fluoro-3-hydroxynaphthalen-1-yl)-8-fluoro-4-((R)-3-hydroxy-3-methylpiperidin-1-yl)pyrido[4,3-d]pyrimidin-2-yl)oxy)methyl)cyclopropyl)methyl)-[1,3′-biazetidin]-3-yl)methyl)piperazin-1-yl)-1-oxoisoindolin-2-yl)piperidine-2,6-dione], for which the GI50 in experiment [1] was 10 to 100 nM. For the same molecule, the IC50 in experiment [2] was less than 20 nM. In addition, the DC50 in experiment [3] fell in the range of 1 to 10 nM.
